For 81 molecules, RP-LC retention time results are on record in the METLIN SMRT retention time set (Domingo-Almenara et al. 2019).

This series can be described thus: gradient 5% acetonitrile 3 min, to 50% in 2 min, to 85% in 15 min, held 3 min, 100 µL/min. The settings on record: column: Zorbax Extend-C18 2.1 x 50 mm; eluents: water / acetonitrile, 0.1% formic acid. In outline:
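Mixtures of ~100 pure standards were chromatographed on a Zorbax Extend-C18 column (2.1 × 50 mm, 1.8 μm) at 100 μL/min using water and acetonitrile, each with 0.1% formic acid. Detection used a quadrupole time-of-flight mass spectrometer in positive and negative ionization mode, and data collection spanned 3 months. Retention time was obtained from adduct peaks picked computationally and each checked manually.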
In turn, `Cc1ccc(Cn2c(=O)n(CCNC(=O)C3CCCC3)c3ncccc32)cc1` showed an RP-LC retention time of 836 s.
To `O=C(Nc1ccccc1Cl)c1csc(-c2ccc(N3CCCC3)nc2)n1` belongs 878 s; to `Cc1cc(NC(=O)c2cnc(-c3ccccc3)nc2-c2ccncc2)ccc1Br`, 994 s; to `Cc1ccc2c(NCc3ccc(F)cc3)c(-c3nc(C(C)C)no3)cnc2n1`, 798 s.
With `O=C(NCc1ccc(-c2noc(-c3n[nH]c4c3CCCC4)n2)s1)C1CC1`, the RP-LC retention time was 786 s.
With `COc1ccc(C2C(=O)N(CCc3ccccc3)CC(=O)N2Cc2ccc3c(c2)OCO3)cc1` (stereo unspecified) the figure was 933 s.
To `COc1ccc(-c2cn3c(CC(=O)Nc4ccc(S(N)(=O)=O)cc4)csc3n2)cc1OC` belongs 630 s; to `CC(C)c1nc(-n2cccc2)sc1C(=O)NCCc1ccc(S(N)(=O)=O)cc1`, 924 s.
`Cc1ccc(-c2noc(-c3nc(Cc4cccc(F)c4)no3)n2)cc1` came in with an RP-LC retention time of 1180 s.
Take `O=C1CC(c2ccco2)Sc2nc3ccccc3n21` (stereo unspecified): the RP-LC retention time came out at 796 s.
With `CC(C)c1nnc(-c2cccnc2N2CCN(C(=O)c3ccc4cc[nH]c4c3)CC2)o1` the figure was 777 s.
On to `O=C(c1ccsc1)N1CCC(c2nc(-c3ccc(F)cc3)n[nH]2)CC1`, for which the RP-LC retention time is 726 s.
Consider `COc1ccc(CCNC(=O)c2cccc3c2C(=O)N(CC2CCCO2)C3)c(OC)c1OC` (stereo unspecified), for which the RP-LC retention time is 875 s.
With `CC(O)CNC(=O)C1CCCN(c2ccc(Sc3ccc(Br)cc3)nn2)C1` (stereo unspecified) the figure was 688 s; with `CN(C)c1ccc(-c2noc(CCC(=O)Nc3ccc4c(c3)OCCO4)n2)cc1`, 875 s; with `Cc1c(NS(C)(=O)=O)cccc1-c1nc2cccnc2s1`, 682 s.
With `Cc1cc(S(=O)(=O)N2CCC(C(N)=O)CC2)ccc1F` the figure was 649 s.
On to `CN(Cc1nc2cc(C(=O)N3CCCC3)ccc2n1C)C(=O)Nc1cccc(Br)c1`, for which the RP-LC retention time stood at 665 s.
To `Cc1nn(-c2cc(N3CCCCC3)ncn2)c(C)c1CCC(=O)N1CCN(c2ccccn2)CC1` belongs 639 s; to `CC(C)n1c(N2CCN(C(=O)c3ccncc3)CC2)cc(=O)n(C(C)C)c1=O`, 601 s.
With `Cc1nnc(CNC(=O)CCn2nnc3ccccc3c2=O)o1` the figure was 566 s; with `CCC(=O)N1CCc2ccccc2C1C(=O)NCc1ccccc1Br` (stereo unspecified), 884 s; with `Cn1cc(C(=O)NC2CCCCCC2)c2nn(-c3ccccc3)c(=O)c-2c1`, 995 s.
`COC(=O)c1cc(S(=O)(=O)N2CCCC2C(=O)Nc2ccccc2C(F)(F)F)cn1C` (stereo unspecified) returned an RP-LC retention time of 918 s.
To `O=C(Nc1ccc(C(F)(F)F)cc1)Nc1cccc(-c2nccnc2N2CCOCC2)c1` belongs 956 s; to `CC(C)CN1CCn2cc(C(=O)N3CCC(C)CC3)nc2C1`, 599 s.
To `Cc1ccc(N2C=NS(=O)(=O)c3cccnc32)cc1F` belongs 815 s; to `C#Cc1cccc(NC(=O)c2ccc(Cl)cc2Cl)c1`, 1060 s.
In turn, `Cc1cccc(OCC(=O)c2ccc3c(c2)N(C(C)C(=O)N2CCCC2)C(=O)CO3)c1C` (stereo unspecified) came in with an RP-LC retention time of 922 s.
`Cc1ccc(-c2nc3cnccn3c2NCCC(=O)NC2CC2)cc1` returned an RP-LC retention time of 616 s.
With `CC(C)n1cnnc1CC1CCN(C(=O)Nc2ccc3c(c2)OCCO3)CC1` the figure was 625 s.
Molecule `COC(=O)c1cc(OC)c(OC)cc1NC(=O)c1c(C)coc1C` returned an RP-LC retention time of 940 s.
To `CCOC(=O)c1noc2nc(C)nc(Nc3ccc(OCC)cc3)c12` belongs 1130 s; to `O=C(NC1CCCC1)N1CCCCC1c1nncn1-c1ccccc1` (stereo unspecified), 602 s; to `Cn1cc(CCN2CCC(C(=O)NCc3ccccc3F)CC2)c2cccnc21`, 595 s.
To `COc1ccc(C(=O)Nc2cnn(C)c(=O)c2N2CCOCC2)cc1OC` belongs 684 s; to `CCn1cc(-c2nc(C(=O)Nc3ccccc3C)cs2)c2cccnc21`, 1120 s.
To `O=C(Nc1ccc2c(c1)OCCO2)c1c(O)c2cccnc2n(-c2ccccc2)c1=O` belongs 1150 s; to `O=C(NCCc1ccccc1)N1CCN(c2cnn3cnnc3c2)CC1`, 615 s; to `COc1cc(OC)cc(-c2noc(-c3nnn(Cc4nc(-c5ccccc5OC)oc4C)c3C)n2)c1`, 1130 s.
With `CC1=C(c2ccc(C)cc2)S(=O)(=O)N=C1N1CCC(NC(=O)c2cc(C)n(C)n2)CC1`, the RP-LC retention time came to 769 s.
To `CC(C)c1ccc(S(=O)(=O)N2CCC3(CCN(c4cccnc4)C3)C2)cc1` (stereo unspecified) belongs 736 s.
`CCC(=O)N1CCc2cc(C(=O)NCc3cccs3)ccc21` yielded an RP-LC retention time of 743 s.
On to `COc1nn(C)cc1C(=O)Nc1cccc(-c2cn3c(n2)SCC3)c1`, for which the RP-LC retention time is 566 s.
For `COc1ccc2c(C)c(CCC(=O)N[C@H](C(=O)O)c3ccccc3)c(=O)oc2c1OC`, the RP-LC retention time is 719 s.
For `Cc1nn(CC(=O)N2CCCC2)c(=O)c2nc(-c3ccccc3)sc12`, the RP-LC retention time is 756 s.
For `CCCc1noc(-c2cccnc2N2CCCN(C(=O)Nc3cc(C)ccc3C)CC2)n1`, the RP-LC retention time was determined as 995 s.
Turning to `O=C(NCc1ccccn1)C1CCN(c2ncnc3c2oc2ccccc23)CC1`, the RP-LC retention time came out at 593 s.
As for `CCCN(Cc1ccc(Cl)cc1)Cc1cc(=O)n2ccc(C)cc2n1`, the RP-LC retention time is 669 s.
To `CCOC(=O)c1sc(NC(C)=O)nc1-c1ccccc1` belongs 848 s; to `CNCc1ccc(-c2cc(Cl)ccc2Cl)o1`, 653 s.
To `O=C(CN1C(=O)CC(c2cccs2)=Nc2ccccc21)NCc1ccccc1` belongs 876 s; to `Cc1nc(CSc2cc(-c3ccccc3)ncn2)cs1`, 907 s.
For the molecule `CCc1cccc(Nc2c(C(=O)N3CCOCC3)cnc3nc(C)ccc23)c1`, the RP-LC retention time came out at 617 s.
To `NC(=O)c1cc(-c2ccc(F)cc2)n[nH]1` belongs 645 s; to `O=C(Cn1cccc(-c2nc(-c3ccc(Cl)cc3)no2)c1=O)N1CCCc2ccccc21`, 1040 s; to `COc1cc(OC)c(NC(=O)CN2C(=O)C(C)(C)c3ccccc32)cc1Cl`, 954 s.
With `Cc1nnc(N2CCCC(C(=O)N3CCCCC3)C2)c2nn(-c3ccc(Cl)cc3)c(C)c12` (stereo unspecified) the figure was 741 s.
With `COc1ccc(NC(=O)c2nc(N3CCCC3)c3c(C)cc(C)nc3n2)cc1` the figure was 656 s; with `Cc1cccc(-n2c(=O)c3c(cc(C)n3C)n(CC(=O)Nc3ccccc3F)c2=O)c1`, 836 s.
Molecule `CC(C)Cn1c(=O)c2ccccc2n(Cc2nc(-c3cccc(Cl)c3)no2)c1=O` showed an RP-LC retention time of 1250 s.
`O=C(NCCc1cnc[nH]1)c1nc(Nc2ccc(F)cc2)c2ccccc2n1` registered an RP-LC retention time of 589 s.
In turn, `CCOCCCNC(=O)c1nc(Nc2ccccc2)c2ccccc2n1` registered an RP-LC retention time of 1130 s.
`Cc1ccc(CN2CCCC(c3nc(-c4cnccn4)no3)CCNC(=O)CC2)s1` (stereo unspecified) had an RP-LC retention time of 603 s.
On to `CN1CCC(NC(=O)c2ccc3c(c2)N(S(=O)(=O)c2ccccc2)CC3)CC1`, for which the RP-LC retention time was 610 s.
With `CCc1ccc(NC(=O)Cn2c(=O)nc(N3CCCC(C)C3)c3ccccc32)cc1` (stereo unspecified) the figure was 905 s; with `Cc1nc(CC(=O)Nc2ccc(Cl)cc2F)cs1`, 838 s; with `Cc1ccc(-c2noc(Cc3nnc(-c4cccc(Br)c4)o3)n2)cc1C`, 1230 s.
`O=S(=O)(c1ccc2c(c1)-c1oncc1CO2)N1CCN(Cc2ccc3c(c2)OCO3)CC1` returned an RP-LC retention time of 666 s.
`CN(C)C(=O)c1cc(N(C)C)nc2c(Cl)cccc12` returned an RP-LC retention time of 745 s.
Molecule `CCOc1cc(=O)n2c(c1C(=O)Nc1ccc(SC)cc1)CCCC2` registered an RP-LC retention time of 754 s.
With `CCOc1cccc(-c2noc(-c3nnn4c3COC(c3ccc(F)cc3)C4)n2)c1` (stereo unspecified) the figure was 1190 s; with `Cc1ccccc1CC(=O)Nc1nnc(SCc2nnc(-c3ccccc3)o2)s1`, 908 s; with `COc1cc(Cl)ccc1C(=O)N(CC1CCOC1)C1CC1` (stereo unspecified), 803 s.
With `OC[C@@H]1CNC[C@H]1C1CCN(Cc2ccc(Cl)c(F)c2)CC1` the figure was 542 s; with `CCN1C(=O)CCc2cc(NC(=O)Cc3ccc(OC)cc3Cl)ccc21`, 647 s.
In the case of `Cc1cc(N2CCN(C(=O)Nc3ccc4c(c3)OCO4)CC2)nc(N2CCCCC2)n1`, the RP-LC retention time was 660 s.
To `CON(C)C(=O)N1N=C(c2cc(F)ccc2F)S[C@@]1(CCCN)c1ccccc1` belongs 792 s; to `Cc1cc(N2CCN(C)CC2)nc2ccc(NC(=S)NC3CCCc4ccccc43)cc12` (stereo unspecified), 632 s.
To `CS(=O)(=O)CCC(C(=O)N1CCN(c2ccccn2)CC1)N1Cc2ccccc2C1=O` (stereo unspecified) belongs 917 s; to `Cc1csc(-c2ccc(CNC(=O)C3CCOC3)cc2)n1` (stereo unspecified), 678 s.
